Key:
[1] = Displacement of [3H] muscimol from rat GABA A receptor
[2] = biological target: T1, GABA-A receptor; alpha-1/beta-2/gamma-2 (Homo sapiens, UniProt P14867+P18507+P47870); experiment: Antagonist activity at human alpha1beta2gamma2S GABA-A receptor expressed in tsA201 cells assessed as inhibition of GABA-induced effect after 30 mins by FLIPR membrane potential blue assay; type: cell-based
T1 sequence (P14867 whole entry): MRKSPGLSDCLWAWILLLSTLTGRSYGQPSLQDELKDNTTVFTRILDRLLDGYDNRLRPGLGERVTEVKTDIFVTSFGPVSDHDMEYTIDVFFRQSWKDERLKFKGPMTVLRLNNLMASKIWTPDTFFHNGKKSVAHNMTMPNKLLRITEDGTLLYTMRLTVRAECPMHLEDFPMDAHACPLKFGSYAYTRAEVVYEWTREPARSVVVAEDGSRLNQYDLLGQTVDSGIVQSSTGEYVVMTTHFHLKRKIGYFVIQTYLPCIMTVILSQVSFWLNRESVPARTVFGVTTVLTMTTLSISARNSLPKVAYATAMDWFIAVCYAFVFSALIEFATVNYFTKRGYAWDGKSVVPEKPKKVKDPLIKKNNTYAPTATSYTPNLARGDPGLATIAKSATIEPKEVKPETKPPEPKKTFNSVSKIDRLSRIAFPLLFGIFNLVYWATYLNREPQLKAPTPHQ
T1 sequence (P47870 whole entry): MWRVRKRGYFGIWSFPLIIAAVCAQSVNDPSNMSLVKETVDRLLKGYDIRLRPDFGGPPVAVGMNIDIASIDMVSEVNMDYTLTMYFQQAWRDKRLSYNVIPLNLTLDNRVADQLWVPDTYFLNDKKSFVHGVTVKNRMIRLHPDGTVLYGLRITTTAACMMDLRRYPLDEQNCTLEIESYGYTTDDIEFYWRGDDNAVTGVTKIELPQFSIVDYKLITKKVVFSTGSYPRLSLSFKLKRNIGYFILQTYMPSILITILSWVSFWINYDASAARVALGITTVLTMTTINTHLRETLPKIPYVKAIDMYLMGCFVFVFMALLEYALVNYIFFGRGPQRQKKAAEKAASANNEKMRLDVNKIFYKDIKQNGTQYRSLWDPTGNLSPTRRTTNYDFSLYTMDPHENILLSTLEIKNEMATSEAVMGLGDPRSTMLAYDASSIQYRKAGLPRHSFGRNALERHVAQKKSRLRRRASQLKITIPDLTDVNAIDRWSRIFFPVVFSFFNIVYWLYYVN
T1 sequence (P18507 whole entry): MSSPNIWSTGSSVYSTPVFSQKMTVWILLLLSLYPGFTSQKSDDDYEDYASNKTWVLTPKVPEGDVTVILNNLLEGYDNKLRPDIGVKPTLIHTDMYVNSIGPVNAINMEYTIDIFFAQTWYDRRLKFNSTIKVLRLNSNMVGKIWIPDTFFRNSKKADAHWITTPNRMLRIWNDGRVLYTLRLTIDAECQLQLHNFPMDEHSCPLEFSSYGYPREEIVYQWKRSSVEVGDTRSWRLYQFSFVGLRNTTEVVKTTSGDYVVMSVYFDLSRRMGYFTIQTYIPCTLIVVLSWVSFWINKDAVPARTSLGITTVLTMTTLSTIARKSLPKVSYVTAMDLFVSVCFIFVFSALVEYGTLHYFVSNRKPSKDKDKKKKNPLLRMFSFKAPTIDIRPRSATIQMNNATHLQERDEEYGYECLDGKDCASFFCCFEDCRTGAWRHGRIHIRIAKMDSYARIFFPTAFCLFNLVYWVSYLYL

SMILES | Ki [1] | IC50 [2] | pKi [1]
On1cc(C2CCNCC2)cn1 | 10000 nM | > 500000 nM | –
On1ncc(C2CCNCC2)c1-c1cn(Cc2ccccc2)c(-c2ccccc2)n1 | 230 nM | 780 nM | 6.64
On1cc(C2CCNCC2)c(-c2cn(Cc3ccccc3)c(-c3ccccc3)n2)n1 | 280 nM | 210 nM | 6.57
On1cc(C2CCNCC2)c(-c2c[nH]cn2)n1 | 5100 nM | 30000 nM | 5.31
On1ncc(C2CCNCC2)c1-c1c[nH]cn1 | 7500 nM | – | 5.14
COc1ccc(-c2ccc(=N)n(CCCC(=O)O)n2)cc1 [GABAZINE] | […] | 240 nM | –
On1ncc(C2CCNCC2)c1-c1cn(Cc2ccccc2)c(Cl)n1 | 830 nM | – | 6.09

Now from value to compound:

Ki [1] | IC50 [2] | pKi [1] | SMILES
30 nM | – | – | On1cc(C2CCNCC2)c(-c2cccc(-c3ccccc3)c2)n1
750 nM | – | 6.13 | On1cc(C2CCNCC2)c(-c2cn(Cc3ccccc3)cn2)n1
2500 nM | 9700 nM | 5.61 | On1cc(C2CCNCC2)c(-c2c[nH]c(-c3ccccc3)n2)n1
740 nM | – | 6.14 | On1cc(C2CCNCC2)c(-c2cn(Cc3ccccc3)c(Cl)n2)n1
14 nM | 690 nM | 7.86 | On1ncc(C2CCNCC2)c1-c1c[nH]c(-c2ccccc2)n1

From ChEMBL document CHEMBL2417406, “Exploring the orthosteric binding site of the γ-aminobutyric acid type A receptor using 4-(Piperidin-4-yl)-1-hydroxypyrazoles 3- or 5-imidazolyl substituted: design, synthesis, and pharmacological evaluation” (J Med Chem, 2013)
